Legend:
24mer c-myc = assay: ITC titration with c-myc G-quadruplex; type: binding
Experimental: (§1) Isothermal titration calorimetry. ITC experiments were performed using a VP-ITC calorimeter (GE-Healthcare). A typical ITC experiment involved as many as addition of 28 (10 μL) injections of as high as 1 mM ligand solutions into ˜1.5 mL of a dilute DNA solution (10 μM). Corrected titration curves were achieved by subtracting the blank titration data from the ITC-data for the ligand-DNA titrations. Corrected ITC titrations were fit with a nonlinear regression algorithm again using the CHASM ITC data analysis program developed in our laboratory.
(§2) DNA stock solutions were prepared by reconstituting the lyophilized oligonucleotide into 20 mM Tris buffer with a salt concentration of 100 mM KCl and a pH of 7.2. Approximately 2 mL of the oligonucleotide was dialyzed (1000 Mw cutoff membrane) against three changes of buffer solution (1 L, 24 h each) at 4° C. The concentrations of stock DNA solutions were verified using UV-Vis. G-Quadruplex DNAs were annealed by quickly heating to sample to 100° C., holding at 100° C. for ten minutes then slowly cooling to 5° C. over three hours period. Molar extinction coefficient of the DNAs were determined using a nearest-neighbor method for single stranded DNA. The extinction coefficients at 260 nm for the WT 27-mer bcl-2, WT 24-mer c-myc, WT 22-mer human telomere hTel sequences are 267,200 M^−1cm^−1, 248,100 M^−1cm^−1, and 228,500 M^−1cm^−1 respectively. The extinction coefficient at 260 nm for the 7 base pair hairpin with A2T2 (7 bp HP⋅AT) and the 7 base pair hairpin without A2T2 (7 bp HP) are 165,200 M^−1cm^−1 and 159,200 M^−1cm^−1 respectively. Cell culture grade water purchased from Corning was used for all experiments.

27mer bcl-2 = assay: ITC titration with bcl-2 G-quadruplex; type: binding
Experimental: as §1, §2

22mer hTel Na^+ = assay: ITC titration with hTel G-quadruplex, Na+ form; type: binding, human; conditions: Na+ form of hTel22
Experimental: as §1
[…] Approximately 2 mL of the oligonucleotide was dialyzed (1000 Mw cutoff membrane) against three changes of buffer solution (1 L, 24 h each) at 4° C. The concentrations of stock DNA solutions were verified using UV-Vis. G-Quadruplex DNAs were annealed by quickly heating to sample to 100° C., holding at 100° C. for ten minutes then slowly cooling to 5° C. over three hours period. Molar extinction coefficient of the DNAs were determined using a nearest-neighbor method for single stranded DNA. The extinction coefficients at 260 nm for the WT 27-mer bcl-2, WT 24-mer c-myc, WT 22-mer human telomere hTel sequences are 267,200 M^−1cm^−1, 248,100 M^−1cm^−1, and 228,500 M^−1cm^−1 respectively. […]

8 bp AT = assay: CD titration with AT-rich duplex DNA; type: binding; conditions: ligand 40 μM, 8 bp AT 0-50 μM
Experimental: CD experiments for binding of ligands with duplex DNA (AT-rich). CD titration experiments, monitoring in the wavelength region corresponding to the bound ligand, were performed with different concentrations of 8 bp AT (0-50 μM) added to a fixed concentration of either DMZ or Triazene-1 (40 μM).

[1] = tested on: G-quadruplex DNAs (c-kit1, VEGF, bcl-2 2345 and TBA); assay: UV-visible titration with G-quadruplex DNA; type: binding; conditions: ligand 10 μM, DNA 0-150 μM, 250 mM KCl, Tris-HCl pH 7.5
Experimental: UV titration studies of DNA with the triazene ligands, DMZ and Triazene-1. The molar extinction coefficients at 260 nm for 22-mer c-kit1, 18-mer VEGF, 23-mer bcl-2 2345, 15-mer TBA and 20-mer 8 bp AT are as follows 226,700 M^−1 cm^−1, 169,800 M^−1 cm^−1, 227,300 M^−1 cm^−1, 143,300 M^−1 cm^1 and 205,500 M^−1 cm^−1, respectively. The concentration of ligands used in this study was 10 μM and the DNA concentrations were 0, 0.25, 1.5, 3, 5, 6, 7, 8, 9, 10, 20, 30, 40, 50, 100, and 15 μM. The buffer contained 250 mM KCl, 50 mM Tris-HCl (at pH 7.5). The following quadruplex DNA were tested: c-kit1, VEGF, bcl-2 2345, and TBA. Duplex DNA (8 bp AT) was also tested. The sample was first heated up to 95° C. for 5 min without the ligand and then cooled down to room temperature in 15 min. The ligand was then added and the mixture was incubated at 4° C. for ˜12 h before recording the data. In case of Triazene-1 and Triazene-2, the sample mixture contained 1% DMSO.

NBM = assay: WST-1 IC50 determination, normal bone marrow; type: cell-based, human; conditions: normal bone marrow, 72 hours, WST-1
Experimental: Cell lines and culturing. The following human cell lines were purchased from ATCC (ATCC, Manassas, Va.): prostate cancer cells (PC-3), triple negative breast cancer cells (MDA-MB-231), ovarian cancer cells (OVCAR-3), normal bone marrow (NBM) and normal fibroblast cells (MCR5A). MDA-MB-231 cells were grown at 37° C. with 5% CO2 atmosphere with DMEM (Life technologies, Carlsbad, Calif.) supplemented with heat-inactivated 10% (V/V) fetal bovine serum. OVCAR-3 and PC-3 cells were grown at 37° C. with 5% CO2 atmosphere with RPMI (Life technologies, Carlsbad, Calif.) supplemented with heat-inactivated 10% (V/V) fetal bovine serum. Cell lines were grown and maintained according to ATCC recommendations.
IC50 determination. Cell lines were seeded into 96-well plates the afternoon prior to treatment. Cell seeding number was determined by growing cells in log phase growth during drug treatment. Approximately 18 hours later, compounds were semi-serially diluted in dimethyl sulfoxide (DMSO) and then growth medium, and added to cells. Plates were incubated for 72 hours prior to addition of WST-1 (Promega, Madison Wis.). Plates were read after 4 additional hours of incubation at 37° C. using a Bio-Tek Synergy HT plate reader (Bio-Tek, Winooski, Vt.). Data was analyzed, graphed and IC50s generated using GraphPad Prism Software (Graphpad, La Jolla, Calif.).
IC50 determination: For the determination of IC50 for the azolamide class, the same protocol as described previously was followed.

[2] = ITC, 20 mM Tris, 100 mM KCl, pH 7.2
[3] = from ITC data, as low as, read-out: dissociation constant

N=C(N)c1ccc(NN=Nc2ccccc2)cc1 [DMZ1]
K1 (24mer c-myc; [2]): 36000 M⁻¹
K1 (27mer bcl-2; [2]): 3500 M⁻¹
ITC interaction heat (22mer hTel Na^+): calorimetrically silent
induced CD of ligand (8 bp AT): No induced CD
shift of absorption spectrum upon DNA titration [1]: red shift

N=C(N)c1ccc(N=NNc2cccc(C#Cc3ccc(F)cc3)c2)cc1 [DMZ9]
IC50 (NBM; read-out: IC50 ± SD, NBM): 5600 nM

N=C(N)c1ccc(/N=N/Nc2ccccc2C#Cc2ccc(F)cc2)cc1 [DMZ13]
IC50 ± SD, NBM (NBM): NE (NE means not effective. Cell viability was the same or greater than 75% of the DMSO control at 20 μM compound concentration.)

N=C(N)c1ccc(/N=N/Nc2ccc(C(=N)N)cc2)cc1 [DMZ, Diminazene aceturate, reference compound]
K1 (24mer c-myc; [2]): 7.6e+08 M⁻¹
K2 (24mer c-myc; [2]): 1.9e+07 M⁻¹
K3 (24mer c-myc; [2]): 280000 M⁻¹
Kd (24mer c-myc; [3]): ~1 nM
K1 (27mer bcl-2; [2]): 8.8e+08 M⁻¹
K2 (27mer bcl-2; [2]): 1.9e+06 M⁻¹
K3 (27mer bcl-2; [2]): 64000 M⁻¹
Kd (27mer bcl-2; [3]): ~1 nM
ITC interaction heat (22mer hTel Na^+): calorimetrically silent
induced CD of ligand (8 bp AT): large positive induced CD
shift of absorption spectrum upon DNA titration [1]: remarkable bathochromic shift (red shift) and a hypochromic effect

— US20190209548A1, “LINKED DIARYL COMPOUNDS WITH ANTICANCER PROPERTIES AND METHODS OF USING THE SAME” (University of Maryland, College Park, priority 2014, published 2019)
